23 molecules from ChEMBL document CHEMBL1127453, “Benzimidazole ribonucleosides: design, synthesis, and antiviral activity of certain 2-(alkylthio)- and 2-(benzylthio)-5,6-dichloro-1-(beta-D-ribofuranosyl)benzimidazoles” (J Med Chem, 1994) can be followed below.

Bounds are passed on as bounds.

Assay [1] deals with Human betaherpesvirus 5. The assay is described as follows: Activity against human cytomegalovirus (HCMV) using plaque reduction assay. The format is functional, organism-based.
The next assay relates to HFF cells (Homo sapiens). The assay is described as follows: Tested for the visual cytotoxicity on HFF cells at the time of human cytomegalovirus (HCMV) plaque enumeration.
The subject of the next assay is Human alphaherpesvirus 1. As to the kind of experiment: Tested for anti-viral activity against Herpes simplex virus type-1 using ELISA. The class given is functional, organism-based. For orientation: An ELISA detects its analyte on a solid surface through an enzyme-linked reagent.
For a further assay, the system named is KB. As to the kind of experiment: The inhibition of KB cell growth was determined. The class given is functional, cell-based. Conditions: Homo sapiens.
Assay [2] has as its system Human betaherpesvirus 5. The assay is described as follows: Tested for the activity against human cytomegalovirus (HCMV) using yield reduction assay. The format is functional.

In the case of `OC[C@@H]1O[C@@H](n2c(S)nc3cc(Cl)c(Cl)cc32)[C@H](O)[C@@H]1O`, the IC50 was greater than 100 µM with Human betaherpesvirus 5 [1] and 100 µM in the assay with HFF cells (Homo sapiens).

Take `CSc1nc2cc(Cl)c(Cl)cc2n1[C@@H]1O[C@@H](CO)[C@@H](O)[C@H]1O`: the IC50 in the assay with Human betaherpesvirus 5 [1] and with HFF cells (Homo sapiens) was greater than 100 µM throughout.

On to `OC[C@H]1OC(n2c(SCc3ccc(Cl)c(Cl)c3)nc3cc(Cl)c(Cl)cc32)[C@H](O)[C@@H]1O` (some centres not stated), for which the IC50 in the assay with Human alphaherpesvirus 1 was greater than 30 µM; in the assay with Human betaherpesvirus 5 [1], 28 µM; in the assay with HFF cells (Homo sapiens), 32 µM.

On to `OC[C@H]1OC(n2c(SCc3ccc(Br)cc3)nc3cc(Cl)c(Cl)cc32)[C@H](O)[C@@H]1O` (some centres not stated), for which the IC50 was found to be 30 µM in the assay on Human alphaherpesvirus 1, 30 µM in the assay with Human betaherpesvirus 5 [1], 20 µM in the assay on KB and 32 µM in the assay on HFF cells (Homo sapiens).

Turning to `C#CCSc1nc2cc(Cl)c(Cl)cc2n1C1O[C@H](CO)[C@@H](O)[C@H]1O` (some centres not stated), the IC50 with Human alphaherpesvirus 1 is 100 µM; with Human betaherpesvirus 5 [1], 25 µM; in the assay on KB, 60 µM; with HFF cells (Homo sapiens), 100 µM.

Take `O=[N+]([O-])c1cccc(CSc2nc3cc(Cl)c(Cl)cc3n2C2O[C@H](CO)[C@@H](O)[C@H]2O)c1` (some centres not stated): the IC50 is 50 µM with Human alphaherpesvirus 1, 40 µM with Human betaherpesvirus 5 [1], 25 µM in the assay on KB and 32 µM in the assay on HFF cells (Homo sapiens).

As for `COc1ccc(CSc2nc3cc(Cl)c(Cl)cc3n2C2O[C@H](CO)[C@@H](O)[C@H]2O)cc1` (some centres not stated), the IC50 with Human alphaherpesvirus 1 is greater than 100 µM; with Human betaherpesvirus 5 [1] it was 40 µM; in the assay with KB, 41 µM; in the assay on HFF cells (Homo sapiens), 66 µM.

With `OC[C@H]1OC(n2c(SCc3cccc(C(F)(F)F)c3)nc3cc(Cl)c(Cl)cc32)[C@H](O)[C@@H]1O` (some centres not stated), the IC50 in the assay with Human alphaherpesvirus 1 came out at 40 µM; in the assay on Human betaherpesvirus 5 [1], 40 µM; in the assay on KB it was 15 µM; with HFF cells (Homo sapiens) it was 32 µM.

Turning to `OC[C@H]1OC(n2c(SCc3ccccc3Cl)nc3cc(Cl)c(Cl)cc32)[C@H](O)[C@@H]1O` (some centres not stated), the IC50 in the assay with Human alphaherpesvirus 1 was 60 µM; in the assay on Human betaherpesvirus 5 [1], 40 µM; in the assay with KB, 30 µM; in the assay on HFF cells (Homo sapiens), 32 µM.

In the case of `CC(C)(C)c1ccc(CSc2nc3cc(Cl)c(Cl)cc3n2C2O[C@H](CO)[C@@H](O)[C@H]2O)cc1` (some centres not stated), the IC50 worked out at 20 µM in the assay with Human alphaherpesvirus 1, 20 µM in the assay on Human betaherpesvirus 5 [1], 50 µM in the assay with KB and 32 µM with HFF cells (Homo sapiens).

With `CS(=O)(=O)c1nc2cc(Cl)c(Cl)cc2n1C1O[C@H](CO)[C@@H](O)[C@H]1O` (some centres not stated), the IC50 in the assay on Human betaherpesvirus 5 [1] and with HFF cells (Homo sapiens) was 10 µM in each case.

With `OC[C@H]1OC(n2c(SCc3ccc(F)cc3)nc3cc(Cl)c(Cl)cc32)[C@H](O)[C@@H]1O` (some centres not stated), the results for the IC50 with Human alphaherpesvirus 1, with Human betaherpesvirus 5 [1] and in the assay on HFF cells (Homo sapiens) were greater than 30 µM, 30 µM and 21 µM, respectively.

Consider `N#CCSc1nc2cc(Cl)c(Cl)cc2n1C1O[C@H](CO)[C@@H](O)[C@H]1O` (some centres not stated), for which the IC50 was greater than 100 µM in the assay on Human alphaherpesvirus 1, 30 µM with Human betaherpesvirus 5 [1], greater than 100 µM with KB and 100 µM in the assay on HFF cells (Homo sapiens). In addition, the concentration for an effect of 90% (IC90) in the assay with Human betaherpesvirus 5 [2] was found to be 10 µM.

On to `Cc1ccc(CSc2nc3cc(Cl)c(Cl)cc3n2C2O[C@H](CO)[C@@H](O)[C@H]2O)cc1` (some centres not stated), for which the IC50 in the assay on Human alphaherpesvirus 1 was greater than 30 µM; in the assay on Human betaherpesvirus 5 [1], 30 µM; with HFF cells (Homo sapiens), 32 µM.

Regarding `Cc1cccc(CSc2nc3cc(Cl)c(Cl)cc3n2C2O[C@H](CO)[C@@H](O)[C@H]2O)c1` (some centres not stated), the IC50 in the assay with Human alphaherpesvirus 1 amounted to 38 µM; in the assay with Human betaherpesvirus 5 [1], 40 µM; in the assay with KB it was 30 µM; with HFF cells (Homo sapiens), 32 µM.

In the case of `C=CCSc1nc2cc(Cl)c(Cl)cc2n1C1O[C@H](CO)[C@@H](O)[C@H]1O` (some centres not stated), the IC50 with Human alphaherpesvirus 1 was greater than 100 µM; with Human betaherpesvirus 5 [1], greater than 100 µM; in the assay with KB, 68 µM; with HFF cells (Homo sapiens), 24 µM.

Turning to `O=[N+]([O-])c1ccc(CSc2nc3cc(Cl)c(Cl)cc3n2C2O[C@H](CO)[C@@H](O)[C@H]2O)cc1` (some centres not stated), the IC50 in the assay with Human alphaherpesvirus 1 was determined as 40 µM; with Human betaherpesvirus 5 [1], 40 µM; in the assay with KB, 30 µM; in the assay with HFF cells (Homo sapiens), 32 µM.

For `OC[C@H]1OC(n2c(SCc3ccc(Cl)cc3)nc3cc(Cl)c(Cl)cc32)[C@H](O)[C@@H]1O` (some centres not stated), the IC50 in the assay on Human alphaherpesvirus 1 is greater than 30 µM; with Human betaherpesvirus 5 [1], greater than 100 µM; in the assay on HFF cells (Homo sapiens), 100 µM.

In the case of `OC[C@H]1OC(n2c(SCc3cccc(Cl)c3)nc3cc(Cl)c(Cl)cc32)[C@H](O)[C@@H]1O` (some centres not stated), the IC50 was 70 µM in the assay with Human alphaherpesvirus 1, 25 µM with Human betaherpesvirus 5 [1], 19 µM with KB and 21 µM in the assay with HFF cells (Homo sapiens).

As to `Nc1nc2c(ncn2COCCO)c(=O)[nH]1` [ACYCLOVIR], the IC50 with Human alphaherpesvirus 1 is 1.7 µM; with Human betaherpesvirus 5 [1], 86 µM; with KB it was greater than 100 µM; in the assay on HFF cells (Homo sapiens) it was greater than 100 µM. The IC90 with Human betaherpesvirus 5 [2] came to 85 µM.

As to `OC[C@H]1O[C@@H](n2cnc3cc(Cl)c(Cl)cc32)[C@H](O)[C@@H]1O` [DICHLORORIBOBENZIMIDAZOLE], the IC50 in the assay on Human alphaherpesvirus 1 was determined as 30 µM; with Human betaherpesvirus 5 [1] it was 42 µM; in the assay on KB it was 100 µM; with HFF cells (Homo sapiens) it was 24 µM. Moreover, the 90% effect level in the assay on Human betaherpesvirus 5 [2] (IC90) was put at 19 µM.

As to `O=C(O)P(=O)(O)O` [FOSCARNET], the figures for the IC50 in the assay with Human betaherpesvirus 5 [1] and with HFF cells (Homo sapiens) were 39 µM and greater than 100 µM, respectively.

For the molecule `Nc1nc2c(ncn2COC(CO)CO)c(=O)[nH]1` [GANCICLOVIR], the half-maximal inhibitory concentration (IC50) was 7.4 µM in the assay on Human betaherpesvirus 5 [1] and greater than 100 µM in the assay on HFF cells (Homo sapiens). The IC90 in the assay on Human betaherpesvirus 5 [2] is 1.6 µM.

One may read the IC50 as the midpoint of a concentration-inhibition curve. A low value points to greater potency. Broadly, the IC90 is the point of the concentration-response curve where the effect stands at 90%. A high value points to a need for much substance.
